One experiment addresses T1, human kinase Mps-1 (Homo sapiens, UniProt P33981).
T1 construct: N-terminally GST-tagged human full length recombinant Mps-1 kinase; GST (N); purchased Invitrogen, Karslruhe, Germany PV4071
T1 sequence (P33981 1-857): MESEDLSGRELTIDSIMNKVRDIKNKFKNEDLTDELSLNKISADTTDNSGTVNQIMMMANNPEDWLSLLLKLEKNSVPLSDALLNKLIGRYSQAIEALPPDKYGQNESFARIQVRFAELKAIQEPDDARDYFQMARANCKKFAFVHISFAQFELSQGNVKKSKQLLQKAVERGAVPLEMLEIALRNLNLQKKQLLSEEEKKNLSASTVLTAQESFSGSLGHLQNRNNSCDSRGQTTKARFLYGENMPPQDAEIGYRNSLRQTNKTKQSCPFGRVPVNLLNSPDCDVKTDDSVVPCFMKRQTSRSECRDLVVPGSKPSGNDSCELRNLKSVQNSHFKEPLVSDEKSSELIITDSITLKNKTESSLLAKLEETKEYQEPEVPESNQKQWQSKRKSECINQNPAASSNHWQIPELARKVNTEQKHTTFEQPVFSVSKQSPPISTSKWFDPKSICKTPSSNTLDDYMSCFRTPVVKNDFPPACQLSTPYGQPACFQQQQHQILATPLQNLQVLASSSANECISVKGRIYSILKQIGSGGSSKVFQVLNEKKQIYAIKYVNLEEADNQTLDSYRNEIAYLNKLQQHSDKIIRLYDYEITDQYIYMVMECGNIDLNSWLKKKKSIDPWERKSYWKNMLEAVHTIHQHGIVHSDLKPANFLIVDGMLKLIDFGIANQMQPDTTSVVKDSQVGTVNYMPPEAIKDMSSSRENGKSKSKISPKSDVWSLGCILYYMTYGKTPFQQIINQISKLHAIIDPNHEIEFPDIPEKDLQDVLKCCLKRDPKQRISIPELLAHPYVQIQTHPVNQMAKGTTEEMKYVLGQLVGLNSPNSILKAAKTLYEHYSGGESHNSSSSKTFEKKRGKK
As to the kind of experiment: Mps-1 kinase assay (TR-FRET). In kind it is biochemical. The note with it: Mps1 IC50 [nM], N-terminally GST-tagged human full length recombinant Mps-1; 10 μM ATP; 1 μM biotinylated peptide substrate; 60 min at 22° C.
One may read the IC50 as the midpoint of a concentration-inhibition curve. With `O=C(NC1CC1)c1ccc(-c2cnc3c(NCc4ccc(Cl)s4)nccn23)cc1O` [Example 7-88, 4-(8-{[(5-chlorothiophen-2-yl)methyl]amino}imi-dazo[1,2-a]pyrazin-3-yl)-N-cyclopropyl-2-hydroxybenzamide], the IC50 is 91.3 nM.

For `O=C(NC1CC1)c1ccc(-c2cnc3c(NCC(O)COc4ccccc4)nccn23)cc1` (centres unmarked) [Example 7-17, N-cyclopropyl-4-{8-[(2-hydroxy-3-phenoxypropyl)amino]imi-dazo[1,2-a]pyrazin-3-yl}benzamide], the IC50 was 412 nM.

As for `CC(=O)NCCNc1nccn2c(-c3ccc(C(=O)NC4CC4)c(C)c3)cnc12` [Example 7-106], the 50% inhibitory concentration (IC50) was found to be 1470 nM.

Turning to `Cc1cc(-c2cnc3c(NCCC(C)C)nccn23)ccc1C(=O)NC1CC1` [Example 7-93, N-cyclopropyl-2-methyl-4-{8-[(3-methylbutyl)amino]imi-dazo[1,2-a]pyrazin-3-yl}benzamide], the IC50 worked out at 13.2 nM.

As for `O=C(NC1CC1)c1ccc(-c2cnc3c(NCCCN4CCOCC4)nccn23)cc1` [Example 7-5, N-cyclopropyl-4-(8-{[3-(morpholin-4-yl)propyl]amino}imi-dazo[1,2-a]pyrazin-3-yl)benzamide], the half-maximal inhibitory concentration (IC50) was determined as 328 nM.

`Cc1cc(-c2cnc3c(NCC(C)O)nccn23)ccc1C(=O)NC1CC1` (centres unmarked) [Example 7-115, N-cyclopropyl-4-{8-[(2-hydroxypropyl)amino]imi-dazo[1,2-a]pyrazin-3-yl}-2-methylbenzamide]: the IC50 came to 101 nM.

Regarding `O=C(NC1CC1)c1ccc(-c2cnc3c(NCC(O)C(F)(F)F)nccn23)cc1Cl` (centres unmarked) [Example 7-55, 2-chloro-N-cyclopropyl-4-{8-[(3,3,3-trifluoro-2-hydroxypropyl)amino]imi-dazo[1,2-a]pyrazin-3-yl}benzamide], the half-maximal inhibitory concentration (IC50) is 175 nM.

With `O=C(NC1CC1)c1ccc(-c2cnc3c(NCCCN4CCCC4=O)nccn23)cc1O` [Example 7-73, N-cyclopropyl-2-hydroxy-4-(8-{[3-(2-oxopyrrolidin-1-yl)propyl]amino}imi-dazo[1,2-a]pyrazin-3-yl)benzamide], the IC50 is 593 nM.

`O=C(NC1CC1)c1ccc(-c2cnc3c(NCC(O)C(F)(F)F)nccn23)cc1O` (centres unmarked) [Example 7-82, N-cyclopropyl-2-hydroxy-4-{8-[(3,3,3-trifluoro-2-hydroxypropyl)amino]imi-dazo[1,2-a]pyrazin-3-yl}benzamide]: the IC50 was 56.7 nM.

With `Cc1cc(-c2cnc3c(NCC(C)C)nccn23)cc(C)c1C(=O)NC1CC1` [Example 1-2, N-cyclopropyl-2,6-dimethyl-4-{8-[(2-methylpropyl)amino]imi-dazo[1,2-a]pyrazin-3-yl}benzamide], the 50% inhibitory concentration (IC50) turned out to be 1230 nM.

With `COc1cc(C(=O)NC2CC2)ccc1-c1cnc2c(NCC(C)C)nccn12` [Example 7-128, N-cyclopropyl-3-methoxy-4-{8-[(2-methylpropyl)amino]imi-dazo[1,2-a]pyrazin-3-yl}benzamide], the half-inhibitory concentration (IC50) stood at 19.3 nM.

Turning to `Cc1cc(-c2cnc3c(NCCCN4CCCC4=O)nccn23)ccc1C(=O)NC1CC1` [Example 7-95, N-cyclopropyl-2-methyl-4-(8-{[3-(2-oxopyrrolidin-1-yl)propyl]amino}imi-dazo[1,2-a]pyrazin-3-yl)benzamide], the IC50 was found to be 562 nM.

As to `O=C(NC1CC1)c1ccc(-c2cnc3c(NC[C@@H](O)CO)nccn23)cc1Cl` [Example 7-68, 2-chloro-N-cyclopropyl-4-{8-[(2,3-dihydroxypropyl)amino]imi-dazo[1,2-a]pyrazin-3-yl}benzamide], the IC50 was 1720 nM.

In the case of `O=C(NC1CC1)c1ccc(-c2cnc3c(NCCCc4ccccc4)nccn23)cc1` [Example 7-24, N-cyclopropyl-4-{8-[(3-phenylpropyl)amino]imi-dazo[1,2-a]pyrazin-3-yl}benzamide], the half-maximal inhibitory concentration (IC50) worked out at 90.1 nM.

Regarding `CC(C)CNc1nccn2c(-c3ccc(C(=O)NC4CC4)c(O)c3)cnc12` [Example 7-80, N-cyclopropyl-2-hydroxy-4-{8-[(2-methylpropyl)amino]imi-dazo[1,2-a]pyrazin-3-yl}benzamide], the IC50 came to 15.5 nM.

Regarding `O=C(NC1CC1)c1ccc(-c2cnc3c(NCCCO)nccn23)cc1O` [Example 7-78, N-cyclopropyl-2-hydroxy-4-{8-[(3-hydroxypropyl)amino]imi-dazo[1,2-a]pyrazin-3-yl}benzamide], the 50% inhibitory concentration (IC50) came out at 93.1 nM.

Turning to `Cc1cc(-c2cnc3c(NCc4ccco4)nccn23)ccc1C(=O)NC1CC1` [Example 7-110, N-cyclopropyl-4-{8-[(furan-2-ylmethyl)amino]imi-dazo[1,2-a]pyrazin-3-yl}-2-methylbenzamide], the half-maximal inhibitory concentration (IC50) was 28.1 nM.

For `O=C(NC1CC1)c1ccc(-c2cnc3c(NCCc4ccccc4)nccn23)cc1` [Example 7-9, N-cyclopropyl-4-{8-[(2-phenylethyl)amino]imi-dazo[1,2-a]pyrazin-3-yl}benzamide], the IC50 is 47.7 nM.

Regarding `CC(C)(O)CNc1nccn2c(-c3ccc(C(=O)NC4CC4)c(O)c3)cnc12` [Example 7-87, N-cyclopropyl-2-hydroxy-4-{8-[(2-hydroxy-2-methylpropyl)amino]imi-dazo[1,2-a]pyrazin-3-yl}benzamide], the IC50 was 160 nM.

For `CC(C)CNc1nccn2c(-c3ccc(C(=O)NC4CC4)c(F)c3)cnc12` [Example 1-4, N-cyclopropyl-2-fluoro-4-{8-[(2-methylpropyl)amino]imi-dazo[1,2-a]pyrazin-3-yl}benzamide], the IC50 was 34 nM.

As for `O=C(NC1CC1)c1ccc(-c2cnc3c(NCCCCO)nccn23)cc1Cl` [Example 7-39, 2-chloro-N-cyclopropyl-4-{8-[(4-hydroxybutyl)amino]imi-dazo[1,2-a]pyrazin-3-yl}benzamide], the IC50 was found to be 239 nM.

The experiment is the same for the next values; noted with them: N-terminally GST-tagged human full length recombinant Mps-1; 10 μM ATP; 1 μM biotinylated peptide substrate; 60 min at 22° C.; read-out: Mps1 IC50.
`CCCNc1nccn2c(-c3ccc(C(=O)NC4CC4)c(C)c3)cnc12` [Example 7-90, N-cyclopropyl-2-methyl-4-[8-(propylamino)imidazo[1,2-a]pyrazin-3-yl]benzamide]: the half-maximal inhibitory concentration (IC50) was 29.7 nM.

Regarding `O=C(NC1CC1)c1ccc(-c2cnc3c(NCc4ccncc4)nccn23)cc1Cl` [Example 7-49, 2-chloro-N-cyclopropyl-4-{8-[(pyridin-4-ylmethyl)amino]imidazo[1,2-a]pyrazin-3-yl}benzamide], the IC50 came to 387 nM.

Turning to `Cc1cc(-c2cnc3c(NCC4CC4)nccn23)ccc1C(=O)NC1CC1` [Example 7-107, N-cyclopropyl-4-{8-[(cyclopropylmethyl)ami-no]imidazo[1,2-a]pyrazin-3-yl}-2-methylbenzamide], the concentration for half-maximal inhibition (IC50) was determined as 18.8 nM.

On to `CC(=O)NCCNc1nccn2c(-c3ccc(C(=O)NC4CC4)cc3)cnc12` [Example 7-16, 4-(8-{[2-(acetylamino)ethyl]ami-no}imidazo[1,2-a]pyrazin-3-yl)-N-cyclopropylbenzamide], for which the IC50 is 961 nM.

Consider `O=C(NC1CC1)c1ccc(-c2cnc3c(NCCc4cccnc4)nccn23)cc1` [Example 7-23, N-cyclopropyl-4-(8-{[2-(pyridin-3-yl)ethyl]amino}imidazo[1,2-a]pyrazin-3-yl)benzamide], for which the IC50 worked out at 244 nM.

For the molecule `O=C(NC1CC1)c1ccc(-c2cnc3c(NCC4CC4)nccn23)cc1Cl` [Example 7-46, 2-chloro-N-cyclopropyl-4-{8-[(cyclopropylmethyl)ami-no]imidazo[1,2-a]pyrazin-3-yl}benzamide], the IC50 amounted to 73.1 nM.

Turning to `CC(C)(O)CNc1nccn2c(-c3ccc(C(=O)NC4CC4)cc3)cnc12` [Example 3-2, N-cyclopropyl-4-{8-[(2-hydroxy-2-methylpropyl)amino]imidazo[1,2-a]pyrazin-3-yl}benzamide], the IC50 was 92.7 nM.

In the case of `O=C(NC1CC1)c1ccc(-c2cnc3c(NCc4ccccc4)nccn23)cc1O` [Example 7-75, 4-[8-(benzylamino)imidazo[1,2-a]pyrazin-3-yl]-N-cyclopropyl-2-hydroxybenzamide], the IC50 was 2030 nM.

Take `CS(=O)(=O)CCNc1nccn2c(-c3ccc(C(=O)NC4CC4)cc3)cnc12` [Example 4-1, N-cyclopropyl-4-(8-{[2-(methylsulfonyl)ethyl]amino}imidazo[1,2-a]pyrazin-3-yl)benzamide]: the concentration for half-maximal inhibition (IC50) was 17.2 nM.

Turning to `O=C(NC1CC1)c1ccc(-c2cnc3c(NCc4ccccn4)nccn23)cc1Cl` [Example 7-47, 2-chloro-N-cyclopropyl-4-{8-[(pyridin-2-ylmethyl)amino]imidazo[1,2-a]pyrazin-3-yl}benzamide], the IC50 was 1190 nM.

In the case of `Cc1cc(-c2cnc3c(NCCCNC(=O)OC(C)(C)C)nccn23)ccc1C(=O)NC1CC1` [Example 7-117, tert-butyl [3-({3-[4-(cyclopropylcarbamoyl)-3-methylphenyl]imidazo[1,2-a]pyrazin-8-yl}amino)propyl]carbamate], the IC50 was found to be 196 nM.

The values are drawn from patent US20130303532A1, “IMIDAZOPYRAZINES FOR USE AS MPS-1 AND TKK INHIBITORS IN THE TREATMENT HYPERPROLIFERATIVE DISORDERS” (BAYER INTELLECTUAL PROPERTY GmbH, priority 2010, published 2013).
